By IC50 is commonly meant the concentration at which inhibition is half-maximal.

What all share (format): cell-based
For experiment [1], the system named is wildtype Wnt pathway. Kind of experiment: HEK293 Super TopFlash cellular reporter assay, Wnt-3a stimulated (wildtype Wnt pathway). As to conditions: Homo sapiens; HEK293 TOP reporter cells, EC50 concentration of recombinant Wnt-3a, 16 hours incubation; read-out: HEK TOP OncoFlash IC50. As to the method: (§1) In order to determine the inhibitory activity of compounds for the WT Wnt signaling pathway, the Super TopFlash vector respectively FOP vector were cotransfected with pcDNA3 into HEK293 and stable transfected HEK293 cells were isolated by antibiotic selection. […] The recombinant human Wnt-3a was thereby used between 2500 and 5 ng/ml in two-fold dilution steps. […] Measurement of luciferase expression was done as described for the constitutive active Wnt assay.
In order to discover and characterize small molecules which inhibit the wildtype Wnt pathway, a cellular reporter assay was employed. The corresponding assay cell was generated by transfection of the mammalian cell line HEK293 (ATCC, #CRL-1573) with the Super TopFlash vector (Morin, Science 275, 1997, 1787-1790; Molenaar et al., Cell 86 (3), 1996, 391-399). The HEK293 cell line is cultivated at 37° C. and 5% CO2 in DMEM (Life Technologies, #41965-039), supplemented with 2 mM glutamine, 20 mM HEPES, 1.4 mM pyruvate, 0.15% Na-bicarbonate and 10% foetal bovine serum (GIBCO, #10270). Stable transfectants were generated by selection with 300 μg/ml Hygromycin.
(§2) In preparation of the assay, the two cell lines were plated 24 hours before beginning the test at 10000 cells per well in a 384 micro titre plate (MTP) in […] growth medium. […] The recombinant human Wnt-3a was thereby applied between 2500 and 5 ng/ml in two-fold dilution steps. Selective inhibitory activity for small molecules on the wildtype Wnt pathway was determined after parallel incubation of both (TOP and FOP) HEK293 reporter cell lines with a compound dilution series from 50 μM to 15 nM in steps of 3.16-fold dilutions in CAFTY buffer (130 mM NaCl, 5 mM KCl, 20 mM HEPES, 1 mM MgCl2, 5 mM NaHCO3, pH 7.4) containing 2 mM Ca^2+ and 0.01% BSA.
(§3) The compounds were thereby serially prediluted in 100% DMSO and thereafter 50 fold into the CAFTY compound dilution buffer (described above).

In experiment [2] the test system is constitutive active colorectal cancer cell (CRC) Wnt pathway. Kind of experiment: HCT116 Super TopFlash cellular reporter assay (constitutive active Wnt pathway). As to conditions: Homo sapiens, HCT-116, 36 h, HCT116 TOP reporter cells, luciferase expression, 36 hours incubation, 50 μM to 15 nM. The gist of the method:
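HCT116 cells (β-catenin ΔS45) stably carrying Super TopFlash, with a parallel FOP-control line, were plated 24 h ahead. They were exposed 36 h at 37 °C, 5% CO2 to compound from a 50 μM–15 nM, 3.16-fold pre-dilution series in CAFTY buffer (pH 7.4, 2 mM Ca2+, 0.01% BSA). Wnt signalling was read as luciferase luminescence.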
(A reporter such as luciferase makes a cellular process visible.)

Experiment [3] deals with HEK293 FOP control reporter cell line. Kind of experiment: HEK293 FOP control vector reporter assay. As to conditions: Homo sapiens; HEK293 FOP control reporter cells, EC50 concentration of recombinant Wnt-3a, 16 hours incubation; read-out: HEK FOP IC50. As to the method: as §1
In a parallel approach, HEK293 cells were cotransfected with the FOP control vector and pcDNA3. The FOP vector is identical to the TOP construct, but it contains instead of functional TCF elements a randomized, non-functional sequence. For this transfection a stable transfected cell line was generated as well, based on selection with Geneticin (1 mg/ml).
as §2, §3

For experiment [4], the system named is HCT116 FOP control reporter cell line. The experiment in a line: HCT116 FOP control vector reporter assay (non-functional TCF elements). The note with it: Homo sapiens, HCT-116, 36 h, HCT116 FOP control reporter cells, luciferase expression, 36 hours incubation, 50 μM to 15 nM; read-out: HCT116 FOPFlash IC50. The gist of the method: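 Stable HCT116 line carrying the non-functional FOP luciferase construct, 10000 cells/well plated 24 hrs before. Compounds 50 μM to 15 nM (3.16-fold steps) in CAFTY buffer pH 7.4 with 2 mM Ca2+, 36 hours at 37° C; luciferase luminescence read.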

Structures are written as SMILES. Where only a bound is given, the exact number is not on record here.

Turning to `COc1ccc(NC(=O)c2ccc(-c3ccccc3)cc2)cc1NC(=O)C(C)(C)N1CCOCC1` [Example 28, N-(4-methoxy-3-{[2-methyl-2-(morpholin-4-yl)propanoyl]amino}phenyl)biphenyl-4-carboxamide], the IC50 is 2.4 µM in experiment [1], 1.79 µM in experiment [2], at least 50 µM in experiment [3] and at least 50 µM in experiment [4].
Regarding `C[C@@H](C(=O)Nc1cc(NC(=O)c2ccc(-c3ccccc3)cc2)ccc1F)N1CCOCC1` [Example 30, N-(4-fluoro-3-{[(2S)-2-(morpholin-4-yl)propanoyl]amino}phenyl)biphenyl-4-carboxamide], the IC50 in experiment [1] was 0.92 µM; in experiment [2] it was 1.64 µM; in experiment [3], 9.2 µM; in experiment [4], at least 50 µM.
`COc1ccc(NC(=O)c2ccc(-c3ccccc3)cc2)cc1NC(=O)CN1CC2CCC(C1)O2` [Example 32, N-{4-methoxy-3-[(8-oxa-3-azabicyclo[3.2.1]oct-3-ylacetyl)amino]phenyl}biphenyl-4-carboxamide]: the IC50 in experiment [1] is 0.52 µM; in experiment [2] it was 0.17 µM; in experiment [3], 17 µM; in experiment [4] it was at least 50 µM.
Take `COc1ccc(NC(=O)c2ccc(-c3ccccc3)cc2)cc1NC(=O)CN1C[C@@H]2C[C@H]1CO2` [Example 33, N-(4-methoxy-3-{[(1S,4S)-2-oxa-5-azabicyclo[2.2.1]hept-5-ylacetyl]amino}phenyl)biphenyl-4-carboxamide]: the IC50 in experiment [1] is 0.4 µM; in experiment [2] it was 0.435 µM; in experiment [3] it was 9 µM; in experiment [4], at least 50 µM.
Take `COc1ccc(NC(=O)c2ccc(-c3ccccc3)cc2)cc1NC(=O)CN1CCN(C2CC2)CC1` [Example 35, N-(3-{[(4-cyclopropylpiperazin-1-yl)acetyl]amino}-4-methoxyphenyl)biphenyl-4-carboxamide]: the IC50 in experiment [1] is 0.92 µM; in experiment [2], 1.18 µM; in experiment [3], 29 µM; in experiment [4] it was at least 50 µM.
With `COc1ccc(NC(=O)c2ccc(-c3ccccc3)cc2)cc1NC(=O)CN1CCCOCC1` [Example 36, N-{4-methoxy-3-[(1,4-oxazepan-4-ylacetyl)amino]phenyl}biphenyl-4-carboxamide], the IC50 in experiment [1] was 0.82 µM; in experiment [2] it was 1.55 µM; in experiment [3] it was 9.9 µM; in experiment [4] it was at least 50 µM.
Taken in the same sequence, the figures for `COc1ccc(NC(=O)c2ccc(-c3ccccc3)cc2)cc1NC(=O)CN1CCSCC1` [Example 37, N-{4-methoxy-3-[(thiomorpholin-4-ylacetyl)amino]phenyl}biphenyl-4-carboxamide] were 0.64 µM, 1.25 µM, at least 50 µM and at least 50 µM.
For `COc1ccc(NC(=O)c2ccc(-c3ccccc3)cc2)cc1NC(=O)CN1CCC(OC)CC1` [Example 39, N-(4-methoxy-3-{[(4-methoxypiperidin-1-yl)acetyl]amino}phenyl)biphenyl-4-carboxamide], the IC50 in experiment [1] was 1.1 µM; in experiment [2], 2.2 µM; in experiment [3], at least 50 µM; in experiment [4] it was at least 50 µM.
For the molecule `COc1ccc(NC(=O)c2ccc(-c3ccccc3)cc2)cc1NC(=O)CN1CCC[C@H](O)C1` [Example 40, N-[3-({[(3S)-3-hydroxypiperidin-1-yl]acetyl}amino)-4-methoxyphenyl]biphenyl-4-carboxamide], the half-inhibitory concentration (IC50) was 0.046 µM in experiment [1], 2.3 µM in experiment [2], 12 µM in experiment [3] and at least 50 µM in experiment [4].
As to `COc1ccc(NC(=O)c2ccc(-c3ccccc3)cc2)cc1NC(=O)CN1CCOC(C)(C)C1` [Example 41, N-(3-{[(2,2-dimethylmorpholin-4-yl)acetyl]amino}-4-methoxyphenyl)biphenyl-4-carboxamide], the IC50 is 0.71 µM in experiment [1], 2.4 µM in experiment [2], at least 50 µM in experiment [3] and at least 50 µM in experiment [4].
Consider `COc1ccc(NC(=O)c2ccc(-c3ccccc3)cc2)cc1NC(=O)CN1CC[C@@H](O)C1` [Example 43, N-[3-({[(3R)-3-hydroxypyrrolidin-1-yl]acetyl}amino)-4-methoxyphenyl]biphenyl-4-carboxamide], for which the 50% inhibitory concentration (IC50) is 1.2 µM in experiment [1], 2.65 µM in experiment [2], at least 50 µM in experiment [3] and at least 50 µM in experiment [4].
On to `COc1ccc(NC(=O)c2ccc(-c3ccccc3)cc2)cc1NC(=O)CN1CCOC[C@@H]1C` [Example 48, N-[4-methoxy-3-({[(3S)-3-methylmorpholin-4-yl]acetyl}amino)phenyl]biphenyl-4-carboxamide], for which the IC50 is 2.8 µM in experiment [1], 0.856 µM in experiment [2], at least 50 µM in experiment [3] and 12 µM in experiment [4].
As for `COc1ccc(NC(=O)c2ccc(-c3ccccc3)cc2)cc1NC(=O)C(C)N1CCOCC1` (stereo not drawn) [Example 53, N-(4-methoxy-3-{[2-(morpholin-4-yl)propanoyl]amino}phenyl)biphenyl-4-carboxamide], the IC50 in experiment [1] is 0.29 µM; in experiment [2], 0.48 µM; in experiment [3] it was 6.2 µM; in experiment [4] it was at least 50 µM.
`COc1ccc(NC(=O)c2ccc(-c3ccccc3)cc2)cc1NC(=O)[C@H](C)N1CC2CCC(C1)O2` [Example 56, N-(4-methoxy-3-{[(2S)-2-(8-oxa-3-azabicyclo[3.2.1]oct-3-yl)propanoyl]amino}phenyl)biphenyl-4-carboxamide]: the IC50 is 4 µM in experiment [1], 0.222 µM in experiment [2], at least 50 µM in experiment [3] and at least 50 µM in experiment [4].
As for `CC(C(=O)Nc1cc(NC(=O)c2ccc(-c3ccccc3)cc2)ccc1OC(F)(F)F)N1CC2CCC(C1)O2` (stereo not drawn) [Example 58, N-[3-{[2-(8-oxa-3-azabicyclo[3.2.1]oct-3-yl)propanoyl]amino}-4-(trifluoromethoxy)phenyl]biphenyl-4-carboxamide], the half-maximal inhibitory concentration (IC50) in experiment [1] is 2.2 µM; in experiment [2] it was 0.054 µM; in experiment [3] it was 35 µM; in experiment [4], at least 50 µM.
Regarding `C[C@@H](C(=O)Nc1cc(NC(=O)c2ccc(-c3ccccc3)cc2)ccc1OC(F)(F)F)N1CC2CCC(C1)O2` [Example 59, N-[3-{[(2S)-2-(8-oxa-3-azabicyclo[3.2.1]oct-3-yl)propanoyl]amino}-4-(trifluoromethoxy)phenyl]biphenyl-4-carboxamide], the concentration for half-maximal inhibition (IC50) in experiment [1] is 1.7 µM; in experiment [2] it was 0.111 µM; in experiment [3] it was at least 50 µM; in experiment [4], 40 µM.
With `CC(C(=O)Nc1cc(NC(=O)c2ccc(-c3ccccc3)cc2)ccc1OC(F)(F)F)N1CCOCC1` (stereo not drawn) [Example 61, N-[3-{[2-(morpholin-4-yl)propanoyl]amino}-4-(trifluoromethoxy)phenyl]biphenyl-4-carboxamide], the half-maximal inhibitory concentration (IC50) in experiment [1] was 0.14 µM; in experiment [2] it was 0.13 µM; in experiment [3], at least 50 µM; in experiment [4] it was at least 50 µM.
On to `C[C@@H](C(=O)Nc1cc(NC(=O)c2ccc(-c3ccccc3)cc2)ccc1OC(F)(F)F)N1CCOCC1` [Example 62, N-[3-{[(2S)-2-(morpholin-4-yl)propanoyl]amino}-4-(trifluoromethoxy)phenyl]biphenyl-4-carboxamide], for which the half-maximal inhibitory concentration (IC50) in experiment [1] is 0.055 µM; in experiment [2], 0.061 µM; in experiment [3] it was 8 µM; in experiment [4], at least 50 µM.
